Data on 8 compounds can be found in PubChem BioAssay (NCI).

Where “and” joins values, the source holds several entries; their conditions need not be identical. Equal entries are not always repeated.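 Grown in 96-well plates, cells were treated for 48 hours with each compound at five concentrations. Insufficient inhibition: endpoint recorded as highest concentration tested. GI50 is the concentration that inhibits growth by half. At the TGI there is no net growth.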

Test systems include ACHN renal; RPMI-8226 leukemia; A549 NSCLC; KM12 colon; SK-MEL-2 melanoma; HCT-116 colon; SN12C renal; COLO 205 colon; DU-145 prostate; SF-295 CNS.
Experiment in all cases: inhibition of tumour cell growth, NCI panel, 48 h

For the compound `COc1cc([C@H]2c3cc(O)c(OC)cc3C[C@]3(O)[C@@H]2CO[C@@H]3O)ccc1O`, the TGI with ACHN renal, with RPMI-8226 leukemia, in the assay with A549 NSCLC, with KM12 colon, in the assay on SK-MEL-2 melanoma and in the assay on HCT-116 colon was > 100 µM each time. Besides, the TGI in the assay with SN12C renal, in the assay with COLO 205 colon, with DU-145 prostate and in the assay on SF-295 CNS was > 100 µM in each case.

On to `COC(=O)C(NC(=O)c1ccccc1)c1ccc(OC)c(I)c1` (centres undefined), for which the GI50 in the assay on ACHN renal was 63.8 µM; with RPMI-8226 leukemia, 44.2 µM; in the assay with A549 NSCLC it was 62.1 µM; in the assay with KM12 colon it was > 100 µM; in the assay with SK-MEL-2 melanoma it was > 100 µM; in the assay on HCT-116 colon, 33.7 µM. The GI50 in the assay on SN12C renal was > 100 µM; in the assay on COLO 205 colon, 80.8 µM; in the assay on DU-145 prostate it was > 100 µM; in the assay with SF-295 CNS, 66.4 µM. For the same compound, the TGI in the assay on ACHN renal, in the assay on RPMI-8226 leukemia, with A549 NSCLC, with KM12 colon, in the assay with SK-MEL-2 melanoma and in the assay with HCT-116 colon was > 100 µM throughout. In addition, the TGI in the assay on SN12C renal, in the assay on COLO 205 colon, in the assay on DU-145 prostate and in the assay with SF-295 CNS was > 100 µM each time.

As to `Cc1cccc(Cc2cnc(NC(=O)CCCOc3ccc(Cl)cc3)s2)c1`, the GI50 is 3.47 µM in the assay with ACHN renal; 4.23 µM in the assay with RPMI-8226 leukemia; 3.94 µM in the assay on A549 NSCLC; 4.53 µM with KM12 colon; > 100 µM with SK-MEL-2 melanoma; 3.36 µM in the assay on HCT-116 colon. Moreover, the GI50 was 5.26 µM in the assay on SN12C renal, 4.46 µM in the assay on COLO 205 colon, 3.91 µM in the assay on DU-145 prostate and 3.89 µM in the assay on SF-295 CNS. Also, the TGI in the assay with ACHN renal, in the assay with RPMI-8226 leukemia, in the assay on A549 NSCLC, in the assay on KM12 colon, in the assay with SK-MEL-2 melanoma and in the assay on HCT-116 colon was > 100 µM each time. The TGI with SN12C renal, in the assay on COLO 205 colon, in the assay with DU-145 prostate and in the assay with SF-295 CNS was > 100 µM each time.

Consider `CCn1c(SC)nnc1-c1cc2c([nH]c3ccccc32)c(-c2cccc(O)c2)n1`, for which the GI50 is 2.12 µM in the assay with ACHN renal; 1.58 µM with RPMI-8226 leukemia; 3.61 µM with A549 NSCLC; 3 µM in the assay on KM12 colon; 1.88 µM with SK-MEL-2 melanoma; 2.5 µM with HCT-116 colon. Also, the GI50 is 4.44 µM in the assay with SN12C renal, 9.49 µM with COLO 205 colon, 4.46 µM in the assay on DU-145 prostate and 1.83 µM in the assay with SF-295 CNS. Moreover, the TGI in the assay with ACHN renal turned out to be 6.47 µM; in the assay with RPMI-8226 leukemia, 10.2 µM; in the assay with A549 NSCLC, 62.9 µM; in the assay on KM12 colon it was 44.7 µM; in the assay with SK-MEL-2 melanoma, 7.6 µM; in the assay on HCT-116 colon, 14 µM. The TGI was 51.4 µM in the assay with SN12C renal, 27.5 µM with COLO 205 colon, 24.9 µM with DU-145 prostate and 5.23 µM in the assay with SF-295 CNS.

On to `CC(C)(CCc1nc2ccccc2[nH]1)C(=O)O`, for which the TGI with ACHN renal, in the assay on RPMI-8226 leukemia, in the assay on A549 NSCLC, in the assay on KM12 colon, with SK-MEL-2 melanoma and with HCT-116 colon was > 100 µM each time. For the same compound, the TGI with SN12C renal, in the assay on COLO 205 colon, in the assay on DU-145 prostate and with SF-295 CNS was > 100 µM each time.

As for `Cc1cc(C2(c3cc(C)c(O)c4ncccc34)OC(=O)c3ccccc32)c2cccnc2c1O`, the TGI with ACHN renal was 1.17 µM and 1.45 µM; in the assay with RPMI-8226 leukemia, > 100 µM; in the assay on A549 NSCLC it was 14 µM; with KM12 colon it was > 100 µM; in the assay with SK-MEL-2 melanoma, > 100 µM; in the assay with HCT-116 colon, > 100 µM. Moreover, the TGI in the assay on SN12C renal was 12.1 µM; in the assay on COLO 205 colon, 28.5 µM; with DU-145 prostate, > 100 µM; in the assay with SF-295 CNS, 21.3 µM. For the same compound, the GI50 is 0.117 µM with SK-MEL-2 melanoma, 0.405 µM with COLO 205 colon, 0.242 µM in the assay with DU-145 prostate and 0.012 µM in the assay on SF-295 CNS.

With `CN(C)C(=O)c1cc2cnc(Nc3ccc(N4CCNCC4)cn3)nc2n1C1CCCC1`, the GI50 in the assay with ACHN renal is 7.89 µM; with RPMI-8226 leukemia, 2.62 µM; in the assay with A549 NSCLC, 12 µM; with KM12 colon it was 2.85 µM; in the assay on SK-MEL-2 melanoma, 12.2 µM; in the assay with HCT-116 colon it was 4.25 µM. For the same compound, the GI50 was 13.9 µM with SN12C renal, 1.75 µM in the assay on COLO 205 colon, 23.5 µM with DU-145 prostate and 13.1 µM in the assay on SF-295 CNS. Also, the TGI with ACHN renal is > 100 µM; with RPMI-8226 leukemia, 30 µM; in the assay on A549 NSCLC it was 41.6 µM; in the assay with KM12 colon it was 32.9 µM; in the assay on SK-MEL-2 melanoma, 30.1 µM; with HCT-116 colon, 48.7 µM. Besides, the TGI is 93.6 µM with SN12C renal, 26.5 µM with COLO 205 colon, > 100 µM with DU-145 prostate and 42 µM with SF-295 CNS.

Take `CS(=O)(=O)Nc1ccc(Nc2c3ccccc3nc3cc(Cl)ccc23)cc1`: the GI50 is 0.343 µM with ACHN renal; 2.56 µM with RPMI-8226 leukemia; 0.188 µM in the assay on A549 NSCLC; 3.81 µM in the assay on KM12 colon; 9.16 µM in the assay with SK-MEL-2 melanoma; 0.84 µM in the assay with HCT-116 colon. In addition, the GI50 was 0.654 µM with SN12C renal, 1.51 µM in the assay on COLO 205 colon, 0.646 µM with DU-145 prostate and 1.07 µM in the assay with SF-295 CNS. The TGI with ACHN renal worked out at 9.57 µM; with RPMI-8226 leukemia, 25.6 µM; in the assay with A549 NSCLC it was 12.1 µM; with KM12 colon, 18.5 µM; with SK-MEL-2 melanoma it was 22.7 µM; in the assay with HCT-116 colon it was 13.1 µM. The TGI is 16.1 µM with SN12C renal, 15.6 µM in the assay on COLO 205 colon, 14 µM in the assay on DU-145 prostate and 15.3 µM in the assay with SF-295 CNS.
